Each block holds one compound with its values, some of them ahead of it.
Key:
[1] = test system: six bacteria (SA, HA-MRSA, CA-MRSA, EF, EC, PA); test: MIC against the panel of bacteria tested; format: cell-based
Experimental: (§1) As used herein, the term “minimum inhibitory concentration (MIC)” refers to the lowest concentration of an antimicrobial agent that will inhibit the visible growth of a microorganism after overnight incubation. MIC values against bacteria, for example, the Gram-positive Staphylococcus aureus and Enterococcus faecalis and the Gram-negative Escherichia coli and Pseudomonas aeruginosa were determined by standard methods. See also P. A. Wayne, Methods for Dilution Antimicrobial Tests for Bacteria that Grow Aerobically; Approved Standard, Ninth Edition, 2012, CLSI Document M07-A9, Vol. 32 No. 2, which is incorporated by reference herein in its entirety.
The complete set of MIC values against six bacteria [Staphylococcus aureus (SA), hospital-acquired methicillin-resistant SA (HA-MRSA), community-acquired methicillin-resistant SA (CA-MRSA), Enterococcus faecalis (EF), Escherichia coli (EC), and Pseudomonas aeruginosa (PA)] is presented in Table 3, wherein multiQACs are grouped with their monoQAC counterparts. The dye-based QACs with greatest inhibition of the complete range of Gram-positive and Gram-negative bacteria featured bis- or tris-quaternization, with the optimal alkyl total ranging from 17-24 carbons. For example, comparison of two biscationic series -LMG-n,1 and LMG-n,n—evaluates the effect of total alkyl chain length in retention of efficacy against the more challenging CA-MRSA and the Gram-negative strains EC and PA.
(§2) Compounds were serially diluted two-fold from a 10% DMSO/aqueous stock solution to yield twelve test concentrations. Overnight S. aureus, E. faecalis, E. coli, P. aeruginosa, CA-MRSA, and HA-MRSA cultures diluted to ca. 10^6 cfu/mL in Mueller-Hinton media and 100 μL were inoculated into each well of a U-bottom 96-well plate (BD Biosciences, BD351177) containing 100 μL of compound solution. Plates were incubated statically at 37° C. for 72 hours upon which time wells were evaluated visually for bacterial growth. The MIC was determined as the lowest concentration of compound resulting in no bacterial growth visible to the naked eye, based on the majority of three independent experiments. Positive and negative DMSO/aqueous solution and media controls were conducted for each trial. See Peng et al., 2011, Chem. Comm. 47:4896-4898.

[2] = test system: Staphylococcus aureus (SA; MSSA SH1000); test: Minimum inhibitory concentration (MIC); format: cell-based; conditions: for MIC SA: Table 6
Experimental: as §1, §2
as §2, with “trial.” for “trial. See Peng et al., 2011, Chem. Comm. 47:4896-4898.”

[3] = test system: Staphylococcus aureus (MSSA) biofilms; test: Minimum biofilm eradication concentration (MBEC), regrowth assay; format: cell-based; set-up: MBEC MSSA: unit not given here; conditions: for MBEC v SA: Table 1; for MBEC MSSA: Table 5, regrowth OD under 0.1 (italics: OD < 0.5)
Experimental: (§3) A regrowth assay was used to establish the MBEC of a compound to evaluate the antibiofilm activity. See also H. Ceri, M. Olson, D. Morck, D. Storey, R. Read, A. Buret, B. Olson, Methods Enzymol. 2001, 337, 377, which is incorporated by reference herein in its entirety.
(§4) To each well of a flat-bottomed 96-well plate (Corning 3370), 8 μL of overnight bacterial culture was brought to a volume of 200 μL with fresh media (BHI for MSSA and MRSA). Plates were incubated statically for 24 hours at 37° C. to establish biofilms. After 24 hours, the wells were carefully emptied by inverting the plate and gently shaking. A pre-mixed solution of media and compound stock solution was added to each well and plates were incubated at 37° C. 16 hours after pre-established biofilms were treated with compound, the media from each well was removed, biofilms were washed three times with 200 μL PBS to remove planktonic cells, and biofilms were incubated overnight at 37° C. in 200 μL of fresh media to allow any viable cells to continue growing. The wells were then vigorously pipetted to resuspend the biofilm cells and the OD at 595 nm was measured using a plate reader (POLARstar Omega, BMG Labtech). Biofilms reaching a final OD of less than 0.1 were considered eradicated and the lowest concentration of antibiotic corresponded to the MBEC. Four replicates were completed for each concentration of compound as well as positive and negative controls.

[4] = test system: Escherichia coli (MC4100); test: Minimum inhibitory concentration (MIC); format: cell-based; conditions: for MIC v EC: Table 1; for MIC EC: Table 6
Experimental: as §1, §2
as §2, with “trial.” for “trial. See Peng et al., 2011, Chem. Comm. 47:4896-4898.”

[5] = test system: Pseudomonas aeruginosa (PAO1); test: Minimum inhibitory concentration (MIC); format: cell-based; conditions: for MIC v PA: Table 1; for MIC PA: Table 6
Experimental: as §1, §2
as §2, with “trial.” for “trial. See Peng et al., 2011, Chem. Comm. 47:4896-4898.”

[6] = test system: Enterococcus faecalis (OG1RF); test: Minimum inhibitory concentration (MIC); format: cell-based; conditions: for MIC v EF: Table 1; for MIC EF: Table 6
Experimental: as §1, §2
as §2, with “trial.” for “trial. See Peng et al., 2011, Chem. Comm. 47:4896-4898.”

[7] = test system: Enterococcus faecalis biofilms; test: Minimum biofilm eradication concentration (MBEC), regrowth assay; format: cell-based; conditions: Table 1
Description: as §3

red blood cells = format: cell-based, sheep
Experimental: To date, synthesized compounds have been evaluated against planktonic bacteria (E. coli, S. aureus, P. aeruginosa, E. facaelis) and bacterial biofilms (E. facaelis, S. aureus, MRSA); new compounds are similarly assessed. All compounds are also evaluated via a hemolysis assay to assess their ability to lyse red blood cells (RBC) (Nagamune et al., 2000, Toxicology in Vitro 14:139-147). The assay is conducted following a known protocol to determine the concentration of compound that causes 20% of RBCs to be lysed. […] All compounds are benchmarked against three commercial antiseptics—benzalkonium chloride, DDAC, and CHX (FIG. 1).
Hemolysis assays were performed according to a known method (Peng et al., 2011, Chem. Comm. 47:4896-4898). Defibrinated sheep blood was purchased from Hemostat Labs (DSB030). Compounds representative of each class were serially diluted in sterile PBS from stock solutions and incubated with resuspended blood cells. The OD of the final suspensions were measured directly using plate reader. TritonX (1% by volume) served as a positive control (100% lysis marker) and sterile PBS served as a negative control (0% lysis marker).

[8] = test system: MRSA biofilms (S. aureus USA300-0114); test: Minimum biofilm eradication concentration (MBEC), regrowth assay; format: cell-based, Staphylococcus aureus; set-up: MBEC MRSA: unit not given here; conditions: for MBEC MRSA: Table 5, regrowth OD under 0.1 (italics: OD < 0.5)
Experimental: as §3, §4

[9] = test system: community-acquired methicillin-resistant Staphylococcus aureus CA-MRSA (USA300-0114); test: Minimum inhibitory concentration (MIC); format: cell-based; conditions: for MIC CA-MRSA: Table 6
Experimental: as §1, §2
as §2, with “trial.” for “trial. See Peng et al., 2011, Chem. Comm. 47:4896-4898.”

[10] = test system: hospital-acquired methicillin-resistant Staphylococcus aureus HA-MRSA (ATCC 33591); test: Minimum inhibitory concentration (MIC); format: cell-based; conditions: Table 6
Experimental: as §1, §2
as §2, with “trial.” for “trial. See Peng et al., 2011, Chem. Comm. 47:4896-4898.”

SMILES: CCCCCCCCCCCCCCCC[n+]1cccc([C@@H]2CCCN2C)c1.[Br-] [N-16,0]
low micromolar activity ([1]; all bacteria except for P. aeruginosa): 4 µM

SMILES: CCCCCCCCCCC[n+]1ccc(-c2cc[n+](CCCCCCCCCCC)cc2)cc1 [PQ-11,11]
MIC v SA ([2]; Table 1): 1 µM
MBEC v SA [3]: 50 µM
MIC v EC [4]: 1 µM
MIC v PA [5]: 4 µM
MIC v EF [6]: 1 µM
MBEC v EF [7]: 50 µM

Lysis20 (red blood cells): 8 µM
TI MRSA (red blood cells): 8
TI SA (red blood cells): 8
MIC v SA ([2]; Table 2, non-resistant S. aureus strain (SH1000)): 1 µM
MIC ([1]; FIG. 4 legend, range of MIC values): 1 to 2 µM
MIC v MRSA ([9]; Table 2, qac-bearing MRSA strain USA300-0114): 1 µM
SMILES: C=CC[N+](C)(CC[N+](C)(C)CCCCCCCCCCCC)CC[N+](C)(CC=C)CC[N+](C)(C)CCCCCCCCCCCC (stereo not shown) [N4-12,allyl,allyl,12]
MBEC v MRSA ([8]; Table 2, pre-formed MRSA biofilms): 150 µM

SMILES: CCCCCCCCCCCCCCCCCC[N+]1(C)CCN(C)CCN(C)CC1.[Br-] [C-18,0,0]
MBEC MSSA [3]: 200
MBEC MRSA [8]: >200

MIC v SA ([2]; Table 1): 1 µM
MIC v EC [4]: 1 µM
MIC v PA [5]: 4 µM
MIC v EF [6]: 2 µM
SMILES: CCCCCCCCCCCC[N+](C)(C)CCCN(C)CCC[N+](C)(C)CCCCCCCCCCCC [12(3)0(3)12]
MBEC v SA [3]: 37.5 µM
MBEC v EF [7]: 50 µM

SMILES: CCCCCCCCCCCCCCCC[N+]1(C)CC[N+](C)(C)CC[N+](C)(C)CC1 [C-16,1,1]
MBEC MSSA [3]: 200
MBEC MRSA [8]: 200

MIC v SA ([2]; Table 1): 1 µM
MIC v EC [4]: 2 µM
MIC v PA [5]: 8 µM
MIC v EF [6]: 2 µM
SMILES: CCCCCCCCCCCC[N+](C)(C)CCC[N+](C)(C)CCC[N+](C)(C)CCCCCCCCCCCC [12(3)1(3)12]
MBEC v SA [3]: 50 µM
MBEC v EF [7]: 50 µM

SMILES: CCCCCCCCCCCCCCCCCCCC[N+]1(C)CC[N+](C)(C)CC[N+](C)(C)CC1 [C-20,1,1]
MBEC MSSA [3]: >200
MBEC MRSA [8]: >200

SMILES: CCCCCCCCCCCCC[N+](C)(C)CCC[N+](C)(CCC[N+](C)(C)CCCCCCCCCCCCC)CCC[N+](C)(C)CCCCCCCCCCCCC [sT-13,13,13,1]
MIC SA [2]: 2 µM
MIC EC [4]: 1 µM
MIC HA-MRSA [10]: 1 µM
MIC PA [5]: 4 µM
MIC EF [6]: 1 µM
MIC CA-MRSA [9]: 0.5 µM

SMILES: C=CC[N+](CCC[N+](C)(C)CCCCCCCCCCCC)(CCC[N+](C)(C)CCCCCCCCCCCC)CCC[N+](C)(C)CCCCCCCCCCCC [sT-12,12,12,3A]
MIC SA [2]: 1 µM
MIC EC [4]: 0.5 µM
MIC HA-MRSA [10]: 0.5 µM
MIC PA [5]: 2 µM
MIC EF [6]: 0.5 µM
MIC CA-MRSA [9]: ≤0.25 µM

SMILES: CCCCCCCCCCCCCCCCCCCC[N+]1(C)CCN(C)CCN(C)CC1.[Br-] [C-20,0,0]
MBEC MSSA [3]: >200
MBEC MRSA [8]: >200

SMILES: CCCCCCCCCCCC[N+](C)(C)CCC[N+](C)(CCC[N+](C)(C)CCCCCCCCCCCC)CCC[N+](C)(C)CCCCCCCCCCCC [sT-12,12,12,1]
MIC SA [2]: 1 µM
MIC EC [4]: 1 µM
MIC HA-MRSA [10]: 2 µM
MIC PA [5]: 4 µM
MIC EF [6]: 1 µM
MIC CA-MRSA [9]: 0.5 µM

— patent US20180111893A1, “POLYCATIONIC AMPHIPHILES AND POLYMERS THEREOF AS ANTIMICROBIAL AGENTS AND METHODS USING SAME” (Temple University-Of The Commonwealth System of Higher …, priority 2015, published 2018)
